Results published in patent US20250230147A1, “LACTAMS AS CBL-B INHIBITORS” (Genentech, Inc., priority 2021, published 2025).
Structures can show the parent of a compound that is named as a salt.

Legend:
c-Cbl = c-Cbl (Homo sapiens (Human), UniProt P22681); experiment: C-Cbl LCK Ub TR-FRET assay (c-cbl Lck HTRF); type: biochemical; conditions: for (fold-selectivity): C-cbl Lck HTRF IC50 relative to Cbl-b Lck HTRF IC50
Method in brief: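 After the ubiquitination reaction, detection mixture was added and plates incubated 20 min at room temperature before reading. IC50 values were calculated with wells lacking LCK as the low control and DMSO as the high control.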

Cbl-b = Cbl-b (Homo sapiens (Human), UniProt Q13191); experiment: Cbl-b LCK Ub TR-FRET assay (Cbl-b Lck HTRF); type: biochemical
Chain of Cbl-b (Q13191 40-426): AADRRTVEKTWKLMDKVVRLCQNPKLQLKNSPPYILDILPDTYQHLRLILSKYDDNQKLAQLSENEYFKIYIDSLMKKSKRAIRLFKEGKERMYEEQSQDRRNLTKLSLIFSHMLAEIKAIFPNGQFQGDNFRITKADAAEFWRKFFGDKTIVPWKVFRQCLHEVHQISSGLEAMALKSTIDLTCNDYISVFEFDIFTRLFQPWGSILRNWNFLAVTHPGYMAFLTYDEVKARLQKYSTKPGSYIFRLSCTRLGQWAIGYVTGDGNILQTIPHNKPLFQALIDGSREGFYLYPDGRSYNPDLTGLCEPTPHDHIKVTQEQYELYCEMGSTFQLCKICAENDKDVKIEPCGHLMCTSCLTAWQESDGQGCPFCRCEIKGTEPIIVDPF
Method in brief: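 Biotin-Cbl-b preincubated with compound (10-point 3-fold series) 60 min, then His-LCK with 1 mM ATP (2× mixture) added for 90 min at room temperature. Ubiquitination detected by TR-FRET using HA-ubiquitin/UBE2D2 adduct, anti-HA-D2 and streptavidin-Eu; IC50 normalised to no-LCK and DMSO controls.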

Chain of c-Cbl (P22681 47-435): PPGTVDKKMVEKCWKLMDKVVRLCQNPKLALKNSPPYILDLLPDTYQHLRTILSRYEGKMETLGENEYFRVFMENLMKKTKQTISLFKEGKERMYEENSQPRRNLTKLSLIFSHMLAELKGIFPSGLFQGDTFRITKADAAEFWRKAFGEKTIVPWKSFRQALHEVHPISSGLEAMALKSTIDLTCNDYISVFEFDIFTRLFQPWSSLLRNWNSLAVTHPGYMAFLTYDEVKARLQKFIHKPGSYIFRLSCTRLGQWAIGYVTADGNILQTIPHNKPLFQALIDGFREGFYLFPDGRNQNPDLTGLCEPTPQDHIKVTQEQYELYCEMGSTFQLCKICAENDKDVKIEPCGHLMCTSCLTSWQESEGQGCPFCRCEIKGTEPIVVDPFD

Compound	IC50 (c-Cbl)	(fold-selectivity) (c-Cbl)	IC50 (Cbl-b)
COCC1(O)CN(Cc2cc3c(c(C(F)(F)F)c2)CN(c2cccc(C4([C@H](F)c5nncn5C)COC4)c2)C3=O)C1 [Compound 186, (S)-2-(3-(3-(fluoro(4-methyl-4H-1,2,4-triazol-3-yl)methyl)oxetan-3-yl)phenyl)-6-((3-hydroxy-3-(methoxymethyl)azetidin-1-yl)methyl)-4-(trifluoromethyl)isoindolin-1-one]	200 nM	1.7x	110 nM
Cc1ncnn1CC1(c2cccc(N3Cc4c(cc(CN5CCN(C)C[C@@H]5C(C)C)cc4C(F)(F)F)C3=O)c2)COC1 [Compound 254, (S)-6-((2-isopropyl-4-methylpiperazin-1-yl)methyl)-2-(3-(3-((5-methyl-1H-1,2,4-triazol-1-yl)methyl)oxetan-3-yl)phenyl)-4-(trifluoromethyl)isoindolin-1-one]	3200 nM	(1.4x)	2400 nM
Cn1cnnc1CC1(c2cc(NC3C4CCC3C4)nc(N3Cc4c(cccc4C(F)(F)F)C3=O)c2)COC1 (centres unmarked) [Compound 382, 2-(6-(bicyclo[2.1.1]hexan-5-ylamino)-4-(3-((4-methyl-4H-1,2,4-triazol-3-yl)methyl)oxetan-3-yl)pyridin-2-yl)-4-(trifluoromethyl)isoindolin-1-one]	20000 nM	(24x)	820 nM
Cn1cnnc1[C@H](F)C1(c2cccc(N3Cc4c(cc(CNC5(C)CCC5)cc4C(F)(F)F)C3=O)c2)CC(F)(F)C1 [Compound 464, (R)-2-(3-(3,3-difluoro-1-(fluoro(4-methyl-4H-1,2,4-triazol-3-yl)methyl)cyclobutyl)phenyl)-6-(((1-methylcyclobutyl)amino)methyl)-4-(trifluoromethyl)isoindolin-1-one]	12 nM	(1.0x)	12 nM
COCCOCCNc1cc(C2(Cc3nncn3C)CCC2)cc(N2Cc3c(cc(CNC4(C)CCC4)cc3C(F)(F)F)C2=O)n1 [Compound 336, 2-(6-((2-(2-methoxyethoxy)ethyl)amino)-4-(1-((4-methyl-4H-1,2,4-triazol-3-yl)methyl)cyclobutyl)pyridin-2-yl)-6-(((1-methylcyclobutyl)amino)methyl)-4-(trifluoromethyl)isoindolin-1-one]	23 nM	(0.70x)	33 nM
CCCC1(O)CN(Cc2cc3c(c(C(F)(F)F)c2)CN(c2cccc(C4([C@H](F)c5nncn5C)COC4)c2)C3=O)C1 [Compound 172, (S)-2-(3-(3-(fluoro(4-methyl-4H-1,2,4-triazol-3-yl)methyl)oxetan-3-yl)phenyl)-6-((3-hydroxy-3-propylazetidin-1-yl)methyl)-4-(trifluoromethyl)isoindolin-1-one]	520 nM	2.9x	180 nM
CC(C)[C@H]1CN(C)CCN1Cc1cc2c(c(C(F)(F)F)c1)CN(c1cc(C3([C@@H](F)c4nncn4C)CCC3)cc(NCCO)n1)C2=O [Compound 233, 2-(4-(1-((R)-fluoro(4-methyl-4H-1,2,4-triazol-3-yl)methyl)cyclobutyl)-6-((2-hydroxyethyl)amino)pyridin-2-yl)-6-(((S)-2-isopropyl-4-methyl-piperazin-1-yl)methyl)-4-(trifluoromethyl)isoindolin-1-one]	7.1 nM	(0.94x)	8.3 nM
C[C@@H]1CN(Cc2cc3c(c(C(F)(F)F)c2)CN(c2cccc(C4(Cc5nncn5C)CC(F)(F)C4)c2)C3=O)CCN1 [Compound 424, (R)-2-(3-(3,3-difluoro-1-((4-methyl-4H-1,2,4-triazol-3-yl)methyl)cyclobutyl)phenyl)-6-((3-methylpiperazin-1-yl)methyl)-4-(trifluoromethyl)isoindolin-1-one]	31 nM	(0.73x)	42 nM
Cn1cnnc1C(F)(F)C1(c2cccc(N3Cc4c(cc(CN)cc4C(F)(F)F)C3=O)c2)CC(F)(F)C1 [Compound 399, 6-(aminomethyl)-2-(3-(1-(difluoro(4-methyl-4H-1,2,4-triazol-3-yl)methyl)-3,3-difluorocyclobutyl)phenyl)-4-(trifluoromethyl)isoindolin-1-one]	430 nM	(0.84x)	510 nM
Cn1cnnc1CC1(c2cc(C3CCC3)nc(N3Cc4c(cccc4C(F)(F)F)C3=O)c2)COC1 [Compound 265, 2-(6-cyclobutyl-4-(3-((4-methyl-4H-1,2,4-triazol-3-yl)methyl)oxetan-3-yl)pyridin-2-yl)-4-(trifluoromethyl)isoindolin-1-one]	1300 nM	(1.4x)	880 nM
CCc1cccc2c1CN(c1cccc(C3([C@@H](F)c4nncn4C)COC3)c1)C2=O [Compound 209]	1900 nM	1.7x	1100 nM
Cn1cnnc1[C@H](F)C1(c2cccc(N3Cc4c(cc(CN5CC[C@H](F)C5)cc4C(F)(F)F)C3=O)c2)COC1 [Compound 82, 2-(3-(3-((R)-fluoro(4-methyl-4H-1,2,4-triazol-3-yl)methyl)oxetan-3-yl)phenyl)-6-(((S)-3-fluoropyrrolidin-1-yl)methyl)-4-(trifluoromethyl)isoindolin-1-one]	68 nM	2.4x	28 nM
C[C@@H](NC1(C)CCC1)c1cc2c(c(C(F)(F)F)c1)CN(c1cccc(C3(Cc4nncn4C)CC(F)(F)C3)c1)C2=O [Compound 245, (R)-2-(3-(3,3-difluoro-1-((4-methyl-4H-1,2,4-triazol-3-yl)-methyl)cyclobutyl)phenyl)-6-(1-((1-methylcyclobutyl)amino)ethyl)-4-(trifluoromethyl)-isoindolin-1-one]	13 nM	(1.0x)	13 nM
Cn1cnnc1[C@H](F)C1(c2cccc(N3Cc4c(cc(CN5CCCC5)cc4C(F)(F)F)C3=O)c2)CC(F)(F)C1 [Compound 395, (R)-2-(3-(3,3-difluoro-1-(fluoro(4-methyl-4H-1,2,4-triazol-3-yl)methyl)cyclobutyl)phenyl)-6-(pyrrolidin-1-ylmethyl)-4-(trifluoromethyl)isoindolin-1-one]	110 nM	(1.0x)	110 nM
Cn1cnnc1[C@H](F)C1(c2cccc(N3Cc4c(cc(CN5CC6CC6C5)cc4C(F)(F)F)C3=O)c2)COC1 (stereo partly drawn) [Compound 84, 6-((3-azabicyclo[3.1.0]hexan-3-yl)methyl)-2-(3-(3-((R)-fluoro(4-methyl-4H-1,2,4-triazol-3-yl)methyl)oxetan-3-yl)phenyl)-4-(trifluoromethyl)isoindolin-1-one]	120 nM	1.9x	62 nM
Cn1cnnc1[C@H](F)C1(c2cccc(N3Cc4c(cc([C@H](N)CC5CC5)cc4C(F)(F)F)C3=O)c2)COC1 [Compound 390, 6-((R)-1-amino-2-cyclopropylethyl)-2-(3-(3-((R)-fluoro(4-methyl-4H-1,2,4-triazol-3-yl)methyl)oxetan-3-yl)phenyl)-4-(trifluoromethyl)isoindolin-1-one]	11 nM	(1.1x)	96 nM
Cn1cnnc1[C@H](F)C1(c2cccc(N3Cc4c(cc(CNC5(C)CCC5)cc4C(F)(F)F)C3=O)c2)COC1 [Compound 494, (R)-2-(3-(3-(fluoro(4-methyl-4H-1,2,4-triazol-3-yl)methyl)oxetan-3-yl)phenyl)-6-(((1-methylcyclobutyl)amino)methyl)-4-(trifluoromethyl)isoindolin-1-one]	12 nM	(0.94x)	13 nM
C[C@@H]1CN(Cc2cc3c(c(C(F)(F)F)c2)CN(c2cccc(C4(Cc5nncn5C)CC(F)(F)C4)c2)C3=O)CCN1C [Compound 220, (R)-2-(3-(3,3-difluoro-1-((4-methyl-4H-1,2,4-triazol-3-yl)methyl)cyclobutyl)phenyl)-6-((3,4-dimethylpiperazin-1-yl)methyl)-4-(trifluoromethyl)isoindolin-1-one]	35 nM	1.0x	34 nM
Cn1cnnc1[C@H](F)C1(c2cccc(N3Cc4c(cc(CN5CCC[C@@H]5CO)cc4C(F)(F)F)C3=O)c2)COC1 [Compound 147, 2-(3-(3-((R)-fluoro(4-methyl-4H-1,2,4-triazol-3-yl)methyl)oxetan-3-yl)phenyl)-6-(((R)-2-(hydroxymethyl)pyrrolidin-1-yl)methyl)-4-(trifluoromethyl)isoindolin-1-one]	190 nM	1.3x	150 nM
Cn1cnnc1[C@H](F)C1(c2cccc(N3Cc4c(cc(CN5CC6(CC6)C5)cc4C(F)(F)F)C3=O)c2)COC1 [Compound 78, (R)-6-((5-azaspiro[2.3]hexan-5-yl)methyl)-2-(3-(3-(fluoro(4-methyl-4H-1,2,4-triazol-3-yl)methyl)oxetan-3-yl)phenyl)-4-(trifluoromethyl)isoindolin-1-one]	79 nM	1.5x	53 nM
Cn1cnnc1[C@@H](F)C1(c2cccc(N3Cc4c(cc(CN5CCC(F)(CO)CC5)cc4C(F)(F)F)C3=O)c2)COC1 [Compound 134, (S)-2-(3-(3-(fluoro(4-methyl-4H-1,2,4-triazol-3-yl)methyl)oxetan-3-yl)phenyl)-6-((4-fluoro-4-(hydroxymethyl)piperidin-1-yl)methyl)-4-(trifluoromethyl)isoindolin-1-one]	670 nM	3.3x	210 nM
CC(NCc1cc2c(c(C(F)(F)F)c1)CN(c1cccc(C3(Cc4nncn4C)CC(F)(F)C3)c1)C2=O)C1CC1 (centres unmarked) [Compound 319, 6-(((1-cyclopropylethyl)amino)methyl)-2-(3-(3,3-difluoro-1-((4-methyl-4H-1,2,4-triazol-3-yl)methyl)cyclobutyl)phenyl)-4-(trifluoromethyl)isoindolin-1-one formate]	16 nM	–	14 nM
